Assay results taken from patent US10781236B2, “Bacteriocin composition and method” (priority 2015, dated 2020).

Key:
[1] = test system: 147 problematic or potentially problematic bacteria of Listeria, Staphylococcus, Streptococcus and Enterococcus; assay: Antimicrobial activity against problematic bacteria, whole panel; format: cell-based; settings: for number of sensitive strains / number of strains tested: Total
Experimental: (§1) To screen for bacteriocin producers with broad inhibition spectra (BIS), Lactococcus lactis, Lactobacillus sakei, Lactobacillus plantarum, Listeria innocua, and Staphylococcus aureus from the food and dairy environment were used as indicators in the first round of screening. The antimicrobial screening was performed using the agar diffusion bioassay as previously described (Holo et al., 1991, J. Bacteriol., 173, p 3879-3887). Briefly, indicator cells from overnight cultures were diluted 100-fold in 5 mL of BHI soft agar and plated out as a lawn on BHI agar plates. Potential bacteriocin producers at volumes of 3 μL were spotted on the indicator lawn and then incubated at appropriate temperatures for 24 h for cell growth and cell inhibition. Inhibition was detected as clear zones around the spotted cells.
As the antimicrobial activity of garvicin KS is relatively broad, we explored further its potential to kill a larger panel of important pathogens. The list contained 147 problematic or potentially problematic bacteria of species belonging to Listeria, Staphylococcus, Streptococcus and Enterococcus, isolated from food and clinical sources. In this assay, we compared the antimicrobial activity of garvicin KS with that of garvicin ML and nisin, the last one being known as a broad inhibition-spectrum bacteriocin (AIKhatib et al., 2014, PLOS One 9:e102246 doi:10.1371/joumal.pone.0102246). […] In all cases, garvicin KS was either equal or better than nisin, regardless of whether the isolates were from clinical or food environments, except for the activity toward clinical isolates of S. aureus where nisin appeared marginally better (24/25 for nisin and 23/25 for KS).

[2] = test system: Staphylococcus aureus LMGT 3022; assay: Relative MIC, inhibitory spectrum; format: cell-based; settings: relative to L. lactis IL 1403 = 1
L. innocua LMGT 2785 = assay: Relative MIC, inhibitory spectrum; format: cell-based, Listeria innocua; settings: relative to L. lactis IL 1403 = 1
P. pentosaceus LMGT 2001 = assay: Relative MIC, inhibitory spectrum; format: cell-based, Pediococcus pentosaceus; settings: relative to L. lactis IL 1403 = 1
L. grayi = assay: Antimicrobial activity against problematic bacteria; format: cell-based, Listeria grayi; settings: food sources
Experimental: as §1
(§2) As the antimicrobial activity of garvicin KS is relatively broad, we explored further its potential to kill a larger panel of important pathogens. The list contained 147 problematic or potentially problematic bacteria of species belonging to Listeria, Staphylococcus, Streptococcus and Enterococcus, isolated from food and clinical sources. In this assay, we compared the antimicrobial activity of garvicin KS with that of garvicin ML and nisin, the last one being known as a broad inhibition-spectrum bacteriocin (AIKhatib et al., 2014, PLOS One 9:e102246 doi:10.1371/joumal.pone.0102246). […]

E. faecium = assay: as above; format: cell-based, Enterococcus faecium; settings: food sources
Experimental: as §1, §2

L. monocytogenes = assay: as above; format: cell-based, Listeria monocytogenes
Experimental: as §1, §2

[3] = test system: C. tyrobutyricum LMGT 2511; assay: Relative MIC, inhibitory spectrum; format: cell-based, Clostridium tyrobutyricum; settings: relative to L. lactis IL 1403 = 1
[4] = test system: L. monocytogenes LMGT 2650; assay: Relative MIC, inhibitory spectrum; format: cell-based, Listeria monocytogenes; settings: relative to L. lactis IL 1403 = 1
Staph. Aureus = assay: Antimicrobial activity against problematic bacteria; format: cell-based, Staphylococcus aureus
Experimental: as §1, §2

E. faecium LMGT 2772 = assay: Relative MIC, inhibitory spectrum; format: cell-based, Enterococcus faecium; settings: relative to L. lactis IL 1403 = 1
[5] = test system: Clostridium bifermentans LMGT 2519; assay: Relative MIC, inhibitory spectrum; format: cell-based; settings: relative to L. lactis IL 1403 = 1
[6] = test system: L. monocytogenes LMGT 2604; assay: Relative MIC, inhibitory spectrum; format: cell-based, Listeria monocytogenes; settings: relative to L. lactis IL 1403 = 1
L. plantarum LMGT 2357 = assay: Relative MIC, inhibitory spectrum; format: cell-based, Lactobacillus plantarum; settings: relative to L. lactis IL 1403 = 1
L. plantarum LMGT 2358 = assay: Relative MIC, inhibitory spectrum; format: cell-based, Lactobacillus plantarum; settings: relative to L. lactis IL 1403 = 1
L. plantarum LMGT 2003 = assay: Relative MIC, inhibitory spectrum; format: cell-based, Lactobacillus plantarum; settings: relative to L. lactis IL 1403 = 1

Substance: garvicin ML
- portion of the 147 strains killed ([1]; 147 strains, clinical and food): 34.6%
- strains killed among the 147 strains tested ([1]; 147 strains, clinical and food): 51 strains
- number of sensitive strains / number of strains tested ([1]; clinical sources): 12/34
- number of sensitive strains / number of strains tested ([1]; food sources): 39/113
- Relative MIC value [2]: 512
- Relative MIC value (L. innocua LMGT 2785): 32
- Relative MIC value (P. pentosaceus LMGT 2001): 16-32
- number of sensitive strains / number of strains tested (L. grayi): 0/2
- number of sensitive strains / number of strains tested (E. faecium): 7/7
- number of sensitive strains / number of strains tested (L. monocytogenes; clinical sources): 0/4
- number of sensitive strains / number of strains tested (L. monocytogenes; food sources): 0/20
- Relative MIC value [3]: 32
- Relative MIC value [4]: 64
- number of sensitive strains / number of strains tested (Staph. Aureus; clinical sources): 9/25
- number of sensitive strains / number of strains tested (Staph. Aureus; food sources): 4/28
- Relative MIC value (E. faecium LMGT 2772): 32
- Relative MIC value [5]: 16-32
- Relative MIC value [6]: 32
- Relative MIC value (L. plantarum LMGT 2357): 64
- Relative MIC value (L. plantarum LMGT 2358): 512
- Relative MIC value (L. plantarum LMGT 2003): 64
